Results taken from ChEMBL document CHEMBL1132024, “N-phosphonoalkyl-5-aminomethylquinoxaline-2,3-diones: in vivo active AMPA and NMDA(glycine) antagonists” (Bioorg Med Chem Lett, 1999).

Experiments:
[1] = molecular target: Glutamate NMDA receptor; assay: In vitro inhibition of binding of [3H]MDL-105519 towards glycine binding site of NMDA receptor in rat
[2] = molecular target: Glutamate receptor ionotropic, AMPA (Rattus norvegicus, UniProt P19490+P19491+P19492+P19493); assay: (§1) In vitro inhibition of binding of [3H]AMPA towards AMPA receptor in rat
[3] = system: Mus musculus; assay: In vivo anticonvulsant effects on electroshock induced convulsion in mice after i.p. administration and 30 min pretreatment.; type: functional; settings: ip
[4] = system: Mus musculus; assay: In vivo anticonvulsant effects in the electroshock induced convulsion in mice after 50 mg/kg intraperitoneal administration and 30 min pretreatment time; type: functional
[5] = molecular target: Glutamate receptor ionotropic, NMDA 1 (Rattus norvegicus) (UniProt P35439); assay: In vitro inhibition of binding of [3H]MDL-105519 towards glycine binding site of NMDA receptor in rat at a concentration of 1 uM
[6] = molecular target: Glutamate receptor ionotropic, AMPA (Rattus norvegicus, UniProt P19491+P19492+P19493+P19490); assay: In vitro inhibition of binding of [3H]-AMPA towards AMPA receptor in rat; No affinity
[7] = molecular target: Glutamate receptor ionotropic, NMDA 1 (Rattus norvegicus) (UniProt P35439); assay: In vitro inhibition of binding of [3H]MDL-105,519 towards glycine binding site of NMDA receptor in rat; settings: concentration not given here
[8] = system: Mus musculus; assay: In vivo anticonvulsant effects in the electroshock induced convulsion in mice after intraperitoneal administration and 2 hr pretreatment time; type: functional; settings: ip
[9] = Partition coefficient (logP); type: physicochemical; settings: octanol/water
[10] = molecular target: Glutamate receptor ionotropic, AMPA (Rattus norvegicus) (UniProt P19491+P19492+P19493+P19490); assay: as §1; settings: concentration not given here
[11] = system: Mus musculus; assay: In vivo anticonvulsant effects in the electroshock induced convulsion in mice after intraperitoneal administration and 1 hr pretreatment time; type: functional; settings: ip
[12] = system: Mus musculus; assay: In vivo anticonvulsant effects in the electroshock induced convulsion in mice after 50 mg/kg intraperitoneal administration and 1 hr pretreatment time; type: functional
[13] = system: Mus musculus; assay: In vivo anticonvulsant effects in the electroshock induced convulsion in mice after intraperitoneal administration and 15 min pretreatment time; type: functional; settings: ip

Sequence of Glutamate receptor ionotropic, AMPA (Rattus norvegicus, UniProt P19491+P19492+P19493+P19490) (P19491 whole entry): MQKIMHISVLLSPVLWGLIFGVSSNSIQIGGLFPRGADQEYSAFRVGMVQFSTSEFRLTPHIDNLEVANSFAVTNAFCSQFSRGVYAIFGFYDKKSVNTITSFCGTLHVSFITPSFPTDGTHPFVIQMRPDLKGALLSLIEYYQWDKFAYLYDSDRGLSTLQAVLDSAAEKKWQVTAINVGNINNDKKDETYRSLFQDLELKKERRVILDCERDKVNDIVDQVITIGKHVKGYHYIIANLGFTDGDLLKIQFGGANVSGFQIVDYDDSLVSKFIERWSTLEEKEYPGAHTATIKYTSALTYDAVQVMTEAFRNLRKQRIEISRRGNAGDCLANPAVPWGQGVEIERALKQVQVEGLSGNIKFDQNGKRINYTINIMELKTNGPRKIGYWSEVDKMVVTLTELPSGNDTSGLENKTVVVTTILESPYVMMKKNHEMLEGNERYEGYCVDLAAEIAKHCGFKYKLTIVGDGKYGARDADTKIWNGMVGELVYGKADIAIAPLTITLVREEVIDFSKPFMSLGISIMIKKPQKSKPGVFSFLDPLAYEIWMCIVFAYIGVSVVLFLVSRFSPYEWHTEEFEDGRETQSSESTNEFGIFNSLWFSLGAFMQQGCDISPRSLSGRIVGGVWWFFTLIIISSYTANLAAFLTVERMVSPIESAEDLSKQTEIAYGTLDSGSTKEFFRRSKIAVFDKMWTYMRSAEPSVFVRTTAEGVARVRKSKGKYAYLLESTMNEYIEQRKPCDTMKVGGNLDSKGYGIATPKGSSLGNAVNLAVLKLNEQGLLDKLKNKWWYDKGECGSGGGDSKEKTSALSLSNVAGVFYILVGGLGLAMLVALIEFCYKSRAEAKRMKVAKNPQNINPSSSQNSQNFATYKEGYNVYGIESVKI
Sequence of Glutamate receptor ionotropic, AMPA (Rattus norvegicus, UniProt P19491+P19492+P19493+P19490) (P19492 whole entry): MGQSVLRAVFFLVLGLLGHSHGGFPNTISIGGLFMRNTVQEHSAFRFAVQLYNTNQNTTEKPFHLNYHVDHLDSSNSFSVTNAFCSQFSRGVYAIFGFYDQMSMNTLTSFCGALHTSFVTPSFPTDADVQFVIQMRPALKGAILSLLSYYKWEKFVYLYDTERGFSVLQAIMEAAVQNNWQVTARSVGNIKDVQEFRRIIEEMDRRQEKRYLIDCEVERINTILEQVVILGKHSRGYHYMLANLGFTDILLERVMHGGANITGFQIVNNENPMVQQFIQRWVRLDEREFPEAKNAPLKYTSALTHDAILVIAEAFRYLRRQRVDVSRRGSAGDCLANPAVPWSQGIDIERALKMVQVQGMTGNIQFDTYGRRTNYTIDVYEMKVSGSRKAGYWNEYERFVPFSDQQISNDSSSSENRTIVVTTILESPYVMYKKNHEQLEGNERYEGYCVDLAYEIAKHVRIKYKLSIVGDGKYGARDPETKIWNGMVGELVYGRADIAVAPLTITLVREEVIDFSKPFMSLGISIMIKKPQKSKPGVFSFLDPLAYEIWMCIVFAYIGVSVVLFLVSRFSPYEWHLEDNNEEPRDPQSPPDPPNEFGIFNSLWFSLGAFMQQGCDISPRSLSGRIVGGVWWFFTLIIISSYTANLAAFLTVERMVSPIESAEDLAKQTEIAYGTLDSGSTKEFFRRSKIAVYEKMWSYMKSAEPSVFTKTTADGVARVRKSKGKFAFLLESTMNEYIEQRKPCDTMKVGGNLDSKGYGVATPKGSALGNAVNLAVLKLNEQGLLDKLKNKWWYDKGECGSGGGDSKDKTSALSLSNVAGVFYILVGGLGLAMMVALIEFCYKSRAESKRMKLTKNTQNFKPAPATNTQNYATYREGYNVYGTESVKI
Sequence of Glutamate receptor ionotropic, AMPA (Rattus norvegicus, UniProt P19491+P19492+P19493+P19490) (P19493 whole entry): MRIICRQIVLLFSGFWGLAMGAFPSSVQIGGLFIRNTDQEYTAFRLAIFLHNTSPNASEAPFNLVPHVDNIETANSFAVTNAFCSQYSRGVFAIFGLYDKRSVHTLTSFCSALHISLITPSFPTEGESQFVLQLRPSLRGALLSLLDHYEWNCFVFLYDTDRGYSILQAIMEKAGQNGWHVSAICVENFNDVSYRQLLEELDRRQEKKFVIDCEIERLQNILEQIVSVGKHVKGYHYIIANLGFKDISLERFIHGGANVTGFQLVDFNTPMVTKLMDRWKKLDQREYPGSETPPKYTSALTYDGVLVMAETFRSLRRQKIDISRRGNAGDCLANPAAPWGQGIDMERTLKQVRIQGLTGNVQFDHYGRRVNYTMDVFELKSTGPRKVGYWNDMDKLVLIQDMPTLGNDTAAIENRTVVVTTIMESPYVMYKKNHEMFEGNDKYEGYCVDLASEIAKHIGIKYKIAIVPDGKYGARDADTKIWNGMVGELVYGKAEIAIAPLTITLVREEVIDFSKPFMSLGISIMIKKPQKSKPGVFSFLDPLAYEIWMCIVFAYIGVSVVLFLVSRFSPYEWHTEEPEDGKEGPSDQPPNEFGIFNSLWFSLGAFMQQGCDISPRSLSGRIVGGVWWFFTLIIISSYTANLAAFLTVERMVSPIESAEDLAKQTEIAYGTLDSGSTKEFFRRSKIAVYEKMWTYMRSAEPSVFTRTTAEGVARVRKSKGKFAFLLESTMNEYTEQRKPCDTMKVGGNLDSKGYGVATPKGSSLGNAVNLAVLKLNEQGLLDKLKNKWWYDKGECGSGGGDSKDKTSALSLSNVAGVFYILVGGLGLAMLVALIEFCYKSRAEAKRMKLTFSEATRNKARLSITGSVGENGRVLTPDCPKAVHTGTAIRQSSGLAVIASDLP
Sequence of Glutamate receptor ionotropic, AMPA (Rattus norvegicus, UniProt P19491+P19492+P19493+P19490) (P19490 whole entry): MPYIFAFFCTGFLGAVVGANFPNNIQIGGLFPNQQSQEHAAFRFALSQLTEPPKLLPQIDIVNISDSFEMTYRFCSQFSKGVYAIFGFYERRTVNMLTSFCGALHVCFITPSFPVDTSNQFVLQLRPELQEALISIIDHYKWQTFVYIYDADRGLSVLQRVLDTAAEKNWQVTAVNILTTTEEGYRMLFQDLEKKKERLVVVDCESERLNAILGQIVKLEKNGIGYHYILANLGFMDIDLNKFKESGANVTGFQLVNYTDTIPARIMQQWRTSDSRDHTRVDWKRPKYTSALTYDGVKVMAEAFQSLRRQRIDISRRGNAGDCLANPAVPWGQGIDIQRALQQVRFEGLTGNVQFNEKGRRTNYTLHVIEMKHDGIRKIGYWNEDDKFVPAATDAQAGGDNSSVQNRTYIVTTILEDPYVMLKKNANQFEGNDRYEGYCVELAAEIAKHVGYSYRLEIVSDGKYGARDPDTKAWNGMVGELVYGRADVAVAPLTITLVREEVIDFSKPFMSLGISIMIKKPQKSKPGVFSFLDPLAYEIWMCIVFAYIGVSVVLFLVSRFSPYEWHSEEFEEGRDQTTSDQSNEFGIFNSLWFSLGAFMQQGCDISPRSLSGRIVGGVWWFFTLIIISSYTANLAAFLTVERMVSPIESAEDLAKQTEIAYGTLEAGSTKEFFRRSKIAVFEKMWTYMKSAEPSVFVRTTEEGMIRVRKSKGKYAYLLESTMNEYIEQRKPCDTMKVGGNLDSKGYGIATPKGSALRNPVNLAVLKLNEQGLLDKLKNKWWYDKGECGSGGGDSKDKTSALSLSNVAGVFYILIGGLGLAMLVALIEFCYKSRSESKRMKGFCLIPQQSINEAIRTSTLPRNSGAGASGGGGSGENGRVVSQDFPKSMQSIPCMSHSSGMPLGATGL

For `C[C@H](NCc1cc(Br)cc2nc(O)c(O)nc12)C(=O)O`, the IC50 [1] was 2200 nM and the IC50 [2] was 4300 nM.

`O=P(O)(O)CNCc1cc(C(F)(F)F)cc2nc(O)c(O)nc12` showed an IC50 [1] of 300 nM, an ED50 [3] of 30 mg/kg and an IC50 [2] of 2000 nM.

Compound `Br.O=C(O)CNCc1cc(Br)cc2nc(O)c(O)nc12` has an IC50 [1] of 40 nM, a Protection [4] of 0% and an IC50 [2] of 4700 nM.

In the case of `Br.CCN(Cc1cc([N+](=O)[O-])cc2nc(O)c(O)nc12)CP(=O)(O)O`, the inhibition [5] is reported as 24%, the ED50 [3] is reported as 18 mg/kg and the IC50 [2] is reported as 120 nM.

`CCN(Cc1cc(C(F)(F)F)cc2nc(O)c(O)nc12)[C@@H](C)P(=O)(O)O` showed an IC50 [1] of 4000 nM, an ED50 [3] of 10 mg/kg and an IC50 [2] of 68 nM.

For `O=P(O)(O)CNCc1cc(Br)cc2nc(O)c(O)nc12`, the IC50 [1] was 100 nM, the Protection [4] was 0% and the IC50 [2] was 2400 nM.

In the case of `CCN(Cc1cc([N+](=O)[O-])cc2nc(O)c(O)nc12)[C@H](C)P(=O)(O)O`, the inhibition [5] is reported as 25%, the ED50 [3] is reported as 26 mg/kg and the IC50 [2] is reported as 310 nM.

For `NCc1ccc(NC(=O)C[C@@H]2CCc3cc(Cl)cc4[nH]c(=O)c(=O)n2c34)c(OCC(=O)O)c1`, the IC50 [1] was 500 nM and the IC50 [6] was “Not Active”.

With `Br.CC(C)(NCc1cc([N+](=O)[O-])cc2nc(O)c(O)nc12)C(=O)O` the Protection [4] was 0%, the inhibition [7] was -9% and the IC50 [2] was 290 nM.

With `C[C@H](NCc1cc([N+](=O)[O-])cc2nc(O)c(O)nc12)P(=O)(O)O` the inhibition [5] was 51%, the ED50 [3] was 8 mg/kg and the IC50 [2] was 380 nM.

`Br.O=C(O)CCNCc1cc([N+](=O)[O-])cc2nc(O)c(O)nc12` gave an IC50 [1] of 19000 nM, an ED50 [3] of 35 mg/kg and an IC50 [2] of 380 nM.

`C[C@@H](NCc1cc([N+](=O)[O-])cc2[nH]c(=O)c(=O)[nH]c12)[P+]([O-])(O)O` gave an IC50 [1] of 32 nM, an ED50 [3] of 3 mg/kg and an IC50 [2] of 170 nM.

For `C[C@@H](CP(=O)(O)O)NCc1cc([N+](=O)[O-])cc2nc(O)c(O)nc12`, the inhibition [5] was 15%, the ED50 [3] was 10 mg/kg and the IC50 [2] was 200 nM.

In the case of `C[C@H](CP(=O)(O)O)NCc1cc([N+](=O)[O-])cc2nc(O)c(O)nc12`, the inhibition [5] is reported as 6%, the ED50 [3] is reported as 9 mg/kg and the IC50 [2] is reported as 200 nM.

With `CCN(Cc1cc([N+](=O)[O-])cc2nc(O)c(O)nc12)[C@@H](C)P(=O)(O)O` the ED50 [3] was 7 mg/kg, the ED50 [8] was 18 mg/kg and the IC50 [2] was 80 nM. For the same compound, the logP [9] was -3.5.

For `COC(=O)C(C)(C)NCc1cc([N+](=O)[O-])cc2nc(O)c(O)nc12`, the inhibition [5] was -3% and the IC50 [2] was 1900 nM.

`C[C@H](NCc1cc(Br)cc2nc(O)c(O)nc12)P(=O)(O)O` showed an ED50 [3] of 43 mg/kg and an IC50 [2] of 1400 nM.

`O=[N+]([O-])c1cc(CNCCP(=O)(O)O)c2nc(O)c(O)nc2c1` gave an inhibition [5] of 8%, an ED50 [3] of 18 mg/kg and an IC50 [2] of 640 nM.

With `O=C(O)CCNCc1cc(Br)cc2nc(O)c(O)nc12` the inhibition [5] was 37% and the IC50 [2] was 3800 nM.

With `Br.C[C@@H](NCc1cc([N+](=O)[O-])cc2nc(O)c(O)nc12)C(=O)O` the IC50 [1] was 1300 nM, the Protection [4] was 0% and the IC50 [2] was 380 nM.

`C[C@H](NCc1cc(C(F)(F)F)cc2nc(O)c(O)nc12)P(=O)(O)O` showed an IC50 [1] of 590 nM, an ED50 [3] of 20 mg/kg and an IC50 [2] of 540 nM.

With `C[C@@H](NCc1cc(Br)cc2nc(O)c(O)nc12)P(=O)(O)O` the ED50 [3] was 12 mg/kg, the ED50 [8] was 18 mg/kg and the IC50 [2] was 3000 nM.

With `CCC(NCc1cc(Br)cc2nc(O)c(O)nc12)P(=O)(O)O` (centres undefined) the inhibition [10] was 16%, the IC50 [1] was 45 nM and the Protection [4] was 20%.

For `C[C@@H](NCc1cc(Br)cc2nc(O)c(O)nc12)C(=O)O`, the IC50 [1] was 120 nM and the IC50 [2] was 4500 nM.

Work on `CC(OCc1cc([N+](=O)[O-])cc2nc(O)c(O)nc12)C(=O)O` (centres undefined) yielded an IC50 [1] of 420 nM and an IC50 [2] of 1300 nM.

`O=c1[nH]c2cc([N+](=O)[O-])cc(CNCP(=O)(O)O)c2[nH]c1=O` gave an IC50 [1] of 1000 nM, an ED50 [3] of 7 mg/kg and an IC50 [2] of 290 nM.

`Br.C[C@H](NCc1cc([N+](=O)[O-])cc2nc(O)c(O)nc12)C(=O)O` gave an ED50 [11] of 19 mg/kg, an IC50 [1] of 1700 nM and a Protection [12] of 0%. For the same compound, the IC50 [2] was 310 nM and the logP [9] was -1.93.

Work on `Br.CC[C@H](NCc1cc([N+](=O)[O-])cc2nc(O)c(O)nc12)C(=O)O` yielded a Protection [4] of 0%, an inhibition [7] of 34% and an IC50 [2] of 1200 nM.

`O=C(O)COCc1cc([N+](=O)[O-])cc2nc(O)c(O)nc12` showed an IC50 [1] of 310 nM and an IC50 [2] of 2000 nM.

Compound `O=C(O)CCCNCc1cc([N+](=O)[O-])cc2nc(O)c(O)nc12` has an IC50 [1] of 9000 nM and an IC50 [2] of 610 nM.

In the case of `O=C(O)COCc1cc(Br)cc2nc(O)c(O)nc12`, the inhibition [10] is reported as 4%, the IC50 [1] is reported as 110 nM and the Protection [12] is reported as 0%.

With `Br.C[C@H](NCCc1cc([N+](=O)[O-])cc2nc(O)c(O)nc12)C(=O)O` the Protection [4] was 0%, the inhibition [7] was 22% and the IC50 [2] was 340 nM.

With `Br.O=C(O)CNCc1cc([N+](=O)[O-])cc2nc(O)c(O)nc12` the IC50 [1] was 760 nM, the ED50 [13] was 32 mg/kg and the IC50 [2] was 160 nM.

With `CC(=O)N(Cc1cc([N+](=O)[O-])cc2nc(O)c(O)nc12)C(C)P(=O)(O)O` (centres undefined) the inhibition [5] was 31% and the IC50 [2] was 1300 nM.

`O=C(O)C1CCN(Cc2cc([N+](=O)[O-])cc3nc(O)c(O)nc23)CC1` gave an IC50 [1] of 3900 nM, an ED50 [3] of 44 mg/kg and an IC50 [2] of 70 nM.

Compound `O=C(O)CSCc1cc(Br)cc2nc(O)c(O)nc12` has an inhibition [10] of 22%, an IC50 [1] of 120 nM and a Protection [12] of 0%.

With `C[C@@H](NCc1cc(C(F)(F)F)cc2[nH]c(=O)c(=O)[nH]c12)P(=O)(O)O` the IC50 [1] was 6 nM, the ED50 [3] was 8 mg/kg and the IC50 [2] was 1200 nM.
